This is an account of results in patent US5149716A, “Insulin derivatives, process for their preparation, their use and a pharmaceutical preparation containing them” (Hoechst Aktiengesellschaft, priority 1989, dated 1992).

The conditions of data set [1]: measured by isoelectric focusing; prior art (European Patent 132,769 and 132,770); cited from earlier work.
The test system of another data set is fasting male rabbits. The experiment in a line: Hypoglycemic action after intravenous administration. In kind it is in vivo, rabbit. As to conditions: i.v.; for Change in blood glucose from starting value: 6.25 microliters/kg of 2.2 mg in 1.5 ml 0.9% NaCl, 5 fasting male rabbits. As for the experimental part: 2.2 mg of anhydrous (A-1)Thr--(AO)Arg--(B30)Des--Thr human insulin were taken up in 1.5 ml of 0.9% strength NaCl solution. 2.2 mg of human insulin, also in 1.5 ml of physiological saline solution, were used as comparison and standard substance. 6.25 microliters of sample solution/kg of live weight were in each case intravenously administered to 5 fasting male rabbits having mean weights of 3.1 kg. 6.25 microliters of standard solution per kg were likewise administered i.v. to 5 other animals. After various times, blood samples were taken and examined for blood sugar concentrations. Within the limits of error, the following measurement results were found: […]

Data set [2] is described as follows: Subcutaneous administration of a crystal suspension. Format: in vivo.

Consider “native insulin: unmodified native insulin”, for which, in data set [1], the isoelectric point is recorded as 5.4.
With “(A-1)Thr--(AO)Arg--(B30)Des--Thr human insulin [(A-1)Thr-(AO)-Arg-(B30)Des-Thr insulin]”, the “Change in blood glucose from starting value” in the data set on fasting male rabbits (1/2 h) is recorded as -31%; in the data set with fasting male rabbits (1 h) it was -31%; in the data set on fasting male rabbits (2 h) it was -20%; in the data set on fasting male rabbits (3 h), -3%. For the same substance, the hypoglycemic action result in the data set on fasting male rabbits (rabbits, compared with human insulin) was “of the same order of magnitude as that of the (unmodified) human insulin”. Besides, the action profile entry in data set [2] was “acts in a sustained manner”.
For the substance human insulin, the “Change in blood glucose from starting value” is -28% with fasting male rabbits (1/2 h); -27% in the data set on fasting male rabbits (1 h); -18% with fasting male rabbits (2 h); -11% with fasting male rabbits (3 h); -6% in the data set on fasting male rabbits (4 h).
Turning to proinsulin, the isoelectric point in data set [1] was 5.4.
